The structures appear in SMILES notation.

Assay [1] concerns H1299 Parental cells. Nature of the assay: Emergence of paclitaxel+carboplatin drug-tolerant colonies, H1299 Parental. The assay is classed as cell-based, human. The note with it: sub-lethal doses with paclitaxel+carboplatin. The text has this: FIGS. 8A-8E. […] Response was greater than additive, indicated by positive ΔBliss. […] Representative images from replicate assays (n=3) are shown. […] See also FIGS. 15-16.

Assay [2] concerns HCC4017 T5. Nature of the assay: MTS cell viability assay, HCC4017 T5 resistant variant vs parental. The assay is classed as cell-based, human. The note with it: HCC4017 T5 vs parental. As for the experimental part:
(§1) NSCLC lines were treated with paclitaxel+carboplatin combination, given in a ˜2:3 wt/wt ratio, to mirror the clinical dosage values of ˜225 mg/m2 and ˜330 mg/m2, paclitaxel and carboplatin respectively. Note that considering the molecular weights of the two drugs, this translates to approximately a 1 to 3.4 molar ratio. Drugs were given in cycles, following a drug on/drug off treatment scheme. Each cycle consisted of 4-5 days of drug treatment and drug-free culturing for about 1-2 weeks or more to allow the surviving cells to repopulate the plate. […] Untreated parental cells were simultaneously maintained at all times for comparison. Cell viability was assessed in 96-well plates using standard MTS assays (Promega). Treatment duration in MTS assays was 4 days. Drugs were tested in two- or four-fold serial dilutions, totaling 8 different drug concentrations, with 8 replicates per concentration. Response was validated in multiple replicate plates (n≥3).
(§2) Cell viability was assessed by standard MTS assays using Promega's CellTiter reagents. Eight drug concentrations given as two- or four-fold dilutions were tested for each chemotherapeutic agent. In addition, each experiment contained eight replicates per concentration and the entire assay was performed in multiple replicates (n≥3).

The subject of assay [3] is H1693 T8. The assay can be described thus: MTS cell viability assay, H1693 T8 resistant variant vs parental. The assay is classed as cell-based, human. The note with it: H1693 T8 vs parental. On the procedure:
as §1, §2
On the technique in general: Tetrazolium dyes change colour on reduction, which living cells bring about.

Assay [4] concerns radioresistant (HCC95, HCC1195 and HCC2279) NSCLC cell lines. Nature of the assay: Clonogenic survival with IR, radioresistant NSCLC lines. The settings on record: all radioresistant NSCLC lines tested. The assay is classed as cell-based, Human. On the procedure:
Cells were serially diluted to appropriate concentrations and plated into 60-mm dish in triplicate for 4 h. Then cells were treated with the indicated drugs, and irradiated 4 hours later with graded doses of radiation for concurrent treatment or irradiated and 4 hours later the drugs added for post-treatment. All cells were irradiated at room temperature in ambient air using a 137Cs source (Mark 1-68 irradiator, JL Shepherd & Associated). Surviving colonies were stained with crystal violet approximately 10 to 14 days later and colonies formed with more than 50 cells were counted. Clonogenic fraction of irradiated cells was normalized to the plating efficiency of unirradiated controls. The data are presented as the mean±SD. The curve S=e^−(αD+βD2) was fitted to the experimental data using a least square fit algorithm using the program Sigma Plot 11.0 (Systat Software, Inc.).

Assay [5] deals with cell cycle distribution. The assay can be described thus: Cell cycle analysis (PI staining). The assay is classed as cell-based, Human. The note with it: H1299 and A549; JIB-04 4 h with or without IR (2 Gy). On the procedure:
NSCLCs were seeded in 6 wells plate, 24 h latter cells were pretreated with JIB-04 or DMSO for 4 h and exposed to a total dose of 2 Gy. Then cells were collected and fixed using 75% ethanol at […] for at least 24 hours. The cells were resuspended with PBS and incubated with 20 μl 1 mg/ml RNase A (Sigma) and 25 μg ml/ml propidium iodide (Sigma) for 30 min at room temperature. Experiment was done by triplicate, 20,000 cells were counted and the proportion of cells of different phase was analyzed using the software Flowjo.

The subject of assay [6] is H3K9me3 demethylases. Nature of the assay: Histone demethylase activity in H1299 cellular extracts (H3K9me3). The assay is classed as cell-based, Human. The settings on record: JIB-04 4 h, no IR. On the procedure: For Histone demethylase activity determination 2×10^6 H1299 cells were seeded in P150 plates. After 24 h cells were pretreated with JIB-04 or DMSO for 4 h, irradiated with a total dose of 8 Gy of radiation. Then cells were sonicated (3×4 sec) and equal amounts of protein were incubated with a histone H3K4me3 or H3K9me3 substrate in a reaction buffer containing cofactors for 1 h at 37° C. Finally specific immune-detection of the H3K4me2 or H3K9me2 product using the Epigentek kit P-3081 for H3K9me3 demethylation and P-3083 for H3K4me3 demethylation. Background readings were given by heat inactivated extracts.

For `CCOC(=O)CCNc1cc(N2CCc3ccccc3CC2)nc(-c2ccccn2)n1` [GSK-J4], in assay [1], the “emergence of drug-tolerant persister colonies” value was “prevented the emergence of drug-tolerant persister colonies”.
Turning to `Clc1ccc(N/N=C(\c2ccccc2)c2ccccn2)nc1` [JIB-04], the “fold increased sensitivity vs parental” value in assay [2] and in assay [3] was about 3 fold each time. The “survival fraction at 2 Gy of radiation (SF2)” value in assay [4] is recorded as “decreasing the survival fraction at 2 Gy of radiation (SF2)”. Also, in assay [5], the cell cycle distribution entry is recorded as “do not Affect Cell Cycle Distribution”. The “basal H3K9me3 demethylase activity” value in assay [6] is “did not have any effects on basal activity”.

(Values after patent publication US11497740B2, “Use of Jumonji C demethylase inhibitors for the treatment and prevention of chemotherapy resistance and radioresistance in cancer” (THE BOARD OF REGENTS OF THE UNIVERSITY OF TEXAS SYSTEM, priority 2016, dated 2022).)
